Laboratory results reported in patent US20240252508A1, “Novel glucose uptake inhibitors for use in the treatment of cancer” (NOVELYEAST BV, priority 2021, published 2024).

Legend:
[1] = tested on: tps1Δ cells; experiment: Growth rescue of tps1Δ strain on glucose (growth curves, 2% galactose medium); format: cell-based, S. cerevisiae; details: 100 μM compound, 2.5 mM glucose
Method in brief: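 tps1Δ yeast pregrown in Complete Synthetic medium with 2% galactose, washed, resuspended to OD 0.1; compounds added 10 min before glucose. Growth followed as OD595 every 30 min at 30 °C in at least three technical replicates.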

[2] = tested on: A549 lung adenocarcinoma cells; experiment: A549 cell proliferation / growth inhibition; format: cell-based, human; details: for Selected from primary screen for growth inhibition of A549 cells at 50 μM: 50 μM compound, 1 mM glucose; for Selected for having an IC50 ratio (10 mM glucose: 1 mM glucose) of A549 growth higher than WBC-A: IC50 on 10 mM vs 1 mM glucose, compared with WBC-A
Method in brief: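 A549 growth screened in RPMI with 1 mM glucose, compounds at 50 μM; cell number from counts of Hoechst-stained nuclei after 3 days. Growth curves also followed by IncuCyte phase-contrast confluency over 3–5 days (1000–1500 cells/well), DMSO ≤0.1%, ≥4 technical repeats.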

Row | SMILES | Rescue of the tps1Δ strain on 2.5 mM glucose at 100 μM [1] | Selected from primary screen for growth inhibition of A549 cells at 50 μM [2] | Selected for having an IC50 ratio (10 mM glucose: 1 mM glucose) of A549 growth higher than WBC-A [2]
1 | CCn1nnnc1Sc1ncnc2scc(-c3ccc(C)cc3)c12 [61A] | No | Yes | Lower IC50 ratio
2 | Cc1nc(SCC(N)=O)c2c(C)c(C)sc2n1 [61C] | No | No | –
3 | c1ccc2c(c1)sc1nnc(Sc3ncnc4sc5c(c34)CCCC5)n12 [62A] | No | No | –
4 | CCCc1nnc(Sc2nc(CN3CCOCC3)nc3scc(-c4cccs4)c23)[nH]1 [62C] | No | Yes | Lower IC50 ratio
5 | Cc1nc(Sc2nnc3n2CCCCC3)c2c3c(sc2n1)CCC3 [63A] | No | No | –
6 | Cc1nc(Sc2nnc(-c3ccoc3C)n2C)c2c(-c3cccs3)csc2n1 [63C] | No | No | –
7 | Cc1sc2ncnc(Sc3nnc4n3CCCCC4)c2c1C [64A] | No | No | –
8 | Cc1cc(C)nc(Sc2nc(CN3CCOCC3)nc3scc(-c4cccs4)c23)n1 [64C] | No | Yes | Lower IC50 ratio
9 | c1nc(Sc2nnc3n2CCCCC3)c2c3c(sc2n1)CCCC3 [65A] | No | No | –
10 | Cc1nc(SCC(=O)N2CCOCC2)c2c3c(sc2n1)CCC3 [65C] | No | No | –
11 | CCN(CC)Cc1nc(Sc2nnc(C3CC3)n2CCC(N)=O)c2c(C)c(C)sc2n1 [66A] | No | No | –
12 | Cc1nc(Sc2nnc(NC3CC3)s2)c2c(-c3cccs3)csc2n1 [66C] | No | No | –
13 | Cc1nc(S)c2c(-c3cccs3)csc2n1 [67A] | No | No | –
14 | COC(=O)CN(C)c1nc(C)nc2scc(-c3ccc(OC)c(OC)c3)c12 [67C] | No | Yes | Lower IC50 ratio
15 | COc1ccccc1-n1ncc2c(C)nnc(SCC(N)=O)c21 [68C] | No | No | –
16 | COCCSc1nnc(C)c2cnn(-c3ccccc3)c12 [69C] | No | No | –
17 | Cc1nnc(SCC(=O)N2CCOCC2)c2c1cnn2-c1ccccc1 [70C] | No | No | –
18 | Cc1nnc(SCC(=O)NCc2ccco2)c2c1cnn2-c1ccccc1 [71C] | No | No | –
19 | Cc1cc(NC(=O)CSc2nnc(C)c3cnn(-c4ccccc4)c23)no1 [72C] | No | No | –
20 | CCOC(=O)CNC(=O)CSc1nnc(C)c2cnn(-c3ccccc3)c12 [73C] | No | No | –
21 | CCOC(=O)CSc1nnc(C)c2cnn(-c3ccccc3)c12 [74C] | No | No | –
22 | Cc1nnc(SCC(=O)NC(C)(C)C)c2c1cnn2-c1ccccc1 [75C] | No | No | –
